Tests used:
Aurora A kinase = molecular target: T1, Aurora A kinase (Homo sapiens, UniProt O14965); test: Assay for the inhibiting activity of kinase (Glo Plus / ADP Glo / Caliper), Aurora A; format: biochemical; details: kinase inhibition, incubated at 30° C. for 1 hour
T1 sequence (O14965 1-403): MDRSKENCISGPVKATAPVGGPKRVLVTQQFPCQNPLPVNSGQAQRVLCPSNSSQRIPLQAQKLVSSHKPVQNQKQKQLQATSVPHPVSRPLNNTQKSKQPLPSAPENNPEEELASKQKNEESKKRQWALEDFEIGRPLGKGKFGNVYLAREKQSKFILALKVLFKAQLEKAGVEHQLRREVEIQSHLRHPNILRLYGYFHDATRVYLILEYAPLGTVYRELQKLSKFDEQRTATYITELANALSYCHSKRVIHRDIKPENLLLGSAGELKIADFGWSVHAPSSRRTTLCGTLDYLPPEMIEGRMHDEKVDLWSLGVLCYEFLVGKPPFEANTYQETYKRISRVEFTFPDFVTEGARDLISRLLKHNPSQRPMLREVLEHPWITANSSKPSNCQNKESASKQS
Description: (§1) Experimental Reagents: a buffer solution of 25 mM HEPES, 10 mM MgCl2, 0.01% Triton X-100, 100 μg/mL BSA, 2.5 mM DTT, pH=7.4; ATP was available from U.S. Sigma (cat. A7699); Glo Plus Kinase Reagent was available from U.S. Promega (cat. V3773); ADP Glo Reagent was available from U.S. Promega (cat. V9102).
(§2) Procedures of the detection experiment for Glo Plus and ADP Glo kinases: the kinase(s), substrate, ATP and the compound(s) to be tested were mixed on a 384-well culture plate, with a total volume of 10 μL of the mixture, […], and then the culture plate was incubated at 30° C. for 1 hour. Test for Glo Plus kinase activity: add 10 μL of Glo Plus kinase per well to the mixture and then incubate at 27° C. for 20 minutes. Test for ADP Glo kinase activity: add 10 μL of ADP Glo per well to the culture plate, and then incubate at 27° C. for 40 minutes. Then a kinase detection reagent (10 μL per well) was added to the culture plate which was incubated at 27° C. for 30 minutes. Read the values from the plate reader to determine inhibition data.
(§3) Biologic testing procedures of Caliper kinase: the kinase, substrate, ATP and the compound to be tested were mixed in a 96-well culture plate, with a total volume of 50 μL of the mixture, and then the culture plate was incubated at 30° C. for 1 hour. Add 20 μL of 35 mM EDTA to the culture plate. A solution of 26 μL of the reaction mixture was transferred to a 384-well culture plate, and read the values on a plate reader to determine inhibition data.

Raf-1 kinase = Raf-1 kinase (Homo sapiens, UniProt P04049); test: Assay for the inhibiting activity of kinase (Glo Plus / ADP Glo / Caliper), Raf-1; format: biochemical; details: kinase inhibition, incubated at 30° C. for 1 hour
Description: as §1, §2, §3

HepG2 = test: Test for activity of inhibiting tumor cells (CellTiter-Glo cell viability), HepG2; format: cell-based; details: Homo sapiens, half growth inhibition concentration, 72 hours incubation
Description: (§4) Reagents and consumables: 1. Tumor cells were available from HD Biosciences (Shanghai) Co., Ltd. and detected mycoplasma-free; 2. RPMI 1640 Culture Medium, available from U.S. Invitrogen, Code No.: 31800-022; 3. F12K Culture Medium, available from U.S. Invitrogen, Code No.: 21127-022; 4. DMEM Culture Medium, available from U.S. Invitrogen, Code No.: 12100-046; 5. Fetal bovine serum, available from U.S. Hyclone, Code No.: CH30160.03; 6. Penicillin-Streptomycin liquid, available from U.S. Invitrogen, Code No.: 15140-122; 7. Gemcitabine, available from U.K. Tocris, Code No.: 3259; 8. DMSO, available from U.S. Sigma, Code No.: D4540; 9. 96-well cell culture plate, available from U.S. Corning, Code No.: 3610; 10. CellTiter-Glo Luminescent Cell Viability Assay, available from U.S. Promega, Code No.: G7571; 11. Plate Reader, available from U.S. Perkin Elmer, EnVision Multilabel Plate Reader.
(§5) The cell culture mediums: 1. RPMI 1640 whole cell culture medium: a RPMI 1640 culture medium containing 10% fetal bovine serum and 100 U penicillin and 100 μg/mL streptomycin. 2. F12K whole cell culture medium: a F12K culture medium containing 10% fetal bovine serum and 100 U penicillin and 100 μg/mL streptomycin. 3. DMEM whole cell culture medium: a DMEM culture medium containing 10% fetal bovine serum and 100 U penicillin and 100 μg/mL streptomycin.
Preparation of the compounds: 1. A test compound was formulated into a mother liquor in a concentration of 30 mM, and the mother liquor was divided into aliquots and stored in a refrigerator at −80° C. 2. The mother liquors of the test compounds in a concentration of 30 mM were diluted with DMSO to a series of solutions in gradient concentrations, wherein these gradient concentrations included 25 mM, 5 mM, 1 mM, 200 μM, 40 μM, 8 μM, 1.6 μM, 0.32 μM. […]
(§6) Procedures: 1. […] The cell plate was placed into the plate reader for analysis. Set to read chemiluminescence and record the data.
(§7) Data Process: The data read in each well were required to be converted into cell viability. The cell viability could be calculated by using formulae. […]

K562 = test: Test for activity of inhibiting tumor cells (CellTiter-Glo cell viability), K562; format: cell-based; details: Homo sapiens, half growth inhibition concentration, 72 hours incubation
Description: as §4, §5
Preparation of the compounds: 1. A test compound was formulated into a mother liquor in a concentration of 30 mM, and the mother liquor was divided into aliquots and stored in a refrigerator at −80° C. 2. The mother liquors of the test compounds in a concentration of 30 mM were diluted with DMSO to a series of solutions in gradient concentrations, wherein these gradient concentrations included 25 mM, 5 mM, 1 mM, 200 μM, 40 μM, 8 μM, 1.6 μM, 0.32 μM. Then the formulated solutions in gradient concentrations were diluted five times with the whole cell culture mediums, and then the gradient concentrations of the test compounds included 5 mM, 1 mM, 200 μM, 40 μM, 8 μM, 1.6 μM, 0.32 μM, 0.064 μM dissolved in 20% DMSO. 3. Only before the experiments began, the prepared solutions of the test compounds in series of gradient concentrations were diluted one hundred times with the whole cell culture mediums under sterile conditions, wherein these gradient concentrations of the test compounds included 50 μM, 10 μM, 2 μM, 0.4 μM, 0.08 μM, 16 nM, 3.2 nM, 0.64 nM; which were 2× the compound solutions and they could be used to treat the cells. 4. […]
as §6, §7

A549 = test: Test for activity of inhibiting tumor cells (CellTiter-Glo cell viability), A549; format: cell-based; details: Homo sapiens, half growth inhibition concentration, 72 hours incubation
Description: as §4
The cell culture mediums: 1. RPMI 1640 whole cell culture medium: a RPMI 1640 culture medium containing 10% fetal bovine serum and 100 U penicillin and 100 μg/mL streptomycin. 2. […]
as §6, §7

Sequence of Raf-1 kinase (P04049 whole entry): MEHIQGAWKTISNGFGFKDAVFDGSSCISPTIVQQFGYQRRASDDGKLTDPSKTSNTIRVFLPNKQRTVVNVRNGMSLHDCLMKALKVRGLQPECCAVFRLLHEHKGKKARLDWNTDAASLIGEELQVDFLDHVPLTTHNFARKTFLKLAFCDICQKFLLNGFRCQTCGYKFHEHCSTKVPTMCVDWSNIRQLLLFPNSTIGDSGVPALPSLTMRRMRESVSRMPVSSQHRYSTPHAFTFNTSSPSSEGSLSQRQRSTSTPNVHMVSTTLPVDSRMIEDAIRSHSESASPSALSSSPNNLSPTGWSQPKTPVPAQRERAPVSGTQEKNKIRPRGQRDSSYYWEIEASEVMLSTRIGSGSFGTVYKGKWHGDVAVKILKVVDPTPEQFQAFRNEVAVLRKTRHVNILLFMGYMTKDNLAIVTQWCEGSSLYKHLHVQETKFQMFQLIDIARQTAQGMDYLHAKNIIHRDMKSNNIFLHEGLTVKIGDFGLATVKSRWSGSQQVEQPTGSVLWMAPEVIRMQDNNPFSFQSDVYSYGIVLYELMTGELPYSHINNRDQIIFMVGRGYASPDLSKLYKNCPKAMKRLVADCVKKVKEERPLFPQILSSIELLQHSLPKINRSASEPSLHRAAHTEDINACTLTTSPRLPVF

Row | IC50 (Aurora A kinase) | IC50 (Raf-1 kinase) | EC50 (HepG2) | EC50 (K562) | EC50 (A549) | SMILES
1 | 0.78 µM | 0.38 µM | 3.82 µM | 4 µM |  | Cc1cc(Nc2nc(Nc3cc(NC(=O)Nc4ccc(Cl)c(C(F)(F)F)c4)ccc3C)ncc2F)n[nH]1 [Compound 2, 1-(4-chloro-3-trifluoromethyl-phenyl)-3-{3-[5-fluoro-4-(5-methyl-1H-pyrazol-3-yl-amino)-pyrimidin-2-yl-amino]-4-methyl-phenyl}-urea]
2 |  | 2.14 µM |  |  |  | Cc1cc(Nc2nc(Nc3cc(NC(=O)Nc4ccc(Cl)c(C(F)(F)F)c4)ccc3C)ncc2O)n[nH]1 [Compound 11, 1-(4-chloro-3-trifluoromethyl-phenyl)-3-{3-[5-hydroxy-4-(5-methyl-1H-pyrazol-3-yl-amino)-pyrimidin-2-yl-amino]-4-methyl-phenyl}-urea]
3 | 2.1 µM | 0.41 µM |  | 11.9 µM |  | Cc1cc(Nc2nc(Nc3cc(NC(=O)Nc4ccc(Cl)c(C(F)(F)F)c4)ccc3C)ncc2N)n[nH]1 [Compound 8, 1-(4-chloro-3-trifluoromethyl-phenyl)-3-{4-methyl-3-[5-methyl-4-(5-methyl-1H-pyrazol-3-yl-amino)-5-amino-pyrimidin-2-yl-amino]-phenyl}-urea]
4 | 0.14 µM | 0.25 µM | 6.98 µM | 4.87 µM |  | Cc1cc(Nc2nc(Nc3cc(NC(=O)Nc4ccc(Cl)c(C(F)(F)F)c4)ccc3C)ncc2C)n[nH]1 [Compound 6, 1-(4-chloro-3-trifluoromethyl-phenyl)-3-{4-methyl-3-[5-methyl-4-(5-methyl-1H-pyrazol-3-yl-amino)-pyrimidin-2-yl-amino]-phenyl}-urea]

Second part, the compound before the results:

Row | SMILES | IC50 (Aurora A kinase) | IC50 (Raf-1 kinase) | EC50 (HepG2) | EC50 (K562) | EC50 (A549)
5 | COc1cnc(Nc2cc(NC(=O)Nc3ccc(Cl)c(C(F)(F)F)c3)ccc2C)nc1Nc1cc(C)[nH]n1 [Compound 9, 1-(4-chloro-3-trifluoromethyl-phenyl)-3-{3-[5-methoxy-4-(5-methyl-1H-pyrazol-3-yl-amino)-pyrimidin-2-yl-amino]-4-methyl-phenyl}-urea] | 0.34 µM | 0.24 µM | 17.7 µM | 4.8 µM | 13.3 µM
6 | Cc1cc(Nc2ccnc(Nc3cc(NC(=O)Nc4ccc(Cl)c(C(F)(F)F)c4)ccc3C)n2)n[nH]1 [Compound 4, 1-(4-chloro-3-trifluoromethyl-phenyl)-3-{4-methyl-3-[4-(5-methyl-1H-pyrazol-3-yl-amino)-pyrimidin-2-yl-amino]-phenyl}-urea] | 2.68 µM |  |  |  | 
7 | Cc1cc(Nc2nc(Nc3cc(NC(=O)Nc4ccc(Cl)c(C(F)(F)F)c4)ccc3C)ncc2C(F)(F)F)n[nH]1 [Compound 3, 1-(4-chloro-3-trifluoromethyl-phenyl)-3-{4-methyl-3-[4-(5-methyl-1H-pyrazol-3-yl-amino)-5-trifluoromethyl-pyrimidin-2-yl-amino]-phenyl}-urea] |  | 1.53 µM |  |  | 

Source: patent publication US9221798B2, “4-substituted-(3-substituted-1H-pyrazole-5-amino)-pyrimidine derivatives having activity of inhibiting protein kinase and use thereof” (Zhejian Hisun Pharmaceutical Co., Ltd., priority 2011, dated 2015)
